Legend:
Assay in all cases: relative viability (nuclei count vs DMSO), 5 days (fraction); higher = more cells survive
Axitinib + Pictilisib = compound: CNC(=O)c1ccccc1Sc1ccc2c(/C=C/c3ccccn3)n[nH]c2c1 [Axitinib] + CS(=O)(=O)N1CCN(Cc2cc3nc(-c4cccc5[nH]ncc45)nc(N4CCOCC4)c3s2)CC1 [Pictilisib] (partner 1 µM)
Summary of the method: (§1)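 Lung cancer cell lines in 1536-well plates got either a single drug or a fixed anchor-drug dose together with five library-drug doses (not always all listed) in √10 steps, by pin tool, on the day after seeding. Nuclei were counted after 5 days, and relative viability is the treated-to-vehicle ratio of nuclei counts. Values are medians of duplicate plates.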

[1] = compound: CC1=CC=C(C=C1)C(=O)CN2C3=C(CCCC3)SC2=N [Pifithrin_alpha] + O=C(c1cc(Cc2n[nH]c(=O)c3ccccc23)ccc1F)N1CCN(C(=O)C2CC2)CC1 [Olaparib] (partner 8 µM)
Summary of the method: as §1

Axitinib + Dasatinib = compound: CNC(=O)c1ccccc1Sc1ccc2c(/C=C/c3ccccn3)n[nH]c2c1 [Axitinib] + Cc1nc(Nc2ncc(C(=O)Nc3c(C)cccc3Cl)s2)cc(N2CCN(CCO)CC2)n1 [Dasatinib] (partner 0.075 µM)
Summary of the method: as §1

Axitinib + AZD7762 = compound: CNC(=O)c1ccccc1Sc1ccc2c(/C=C/c3ccccn3)n[nH]c2c1 [Axitinib] + NC(=O)Nc1cc(-c2cccc(F)c2)sc1C(=O)N[C@H]1CCCNC1 [AZD7762] (partner 0.2 µM)
Summary of the method: as §1

Cell Line	relative viability (Axitinib + Pictilisib; first compound 0.005 µM)	relative viability (Axitinib + Pictilisib; first compound 0.01581 µM)	relative viability (Axitinib + Pictilisib; first compound 0.05 µM)	relative viability (Axitinib + Pictilisib; first compound 0.1581 µM)	relative viability (Axitinib + Pictilisib; first compound 0.5 µM)	relative viability ([1]; first compound 1 µM)	relative viability ([1]; first compound 3.162 µM)	relative viability ([1]; first compound 10 µM)	relative viability ([1]; first compound 31.62 µM)	relative viability ([1]; first compound 100 µM)	relative viability (Axitinib + Dasatinib; first compound 0.005 µM)	relative viability (Axitinib + Dasatinib; first compound 0.01581 µM)	relative viability (Axitinib + Dasatinib; first compound 0.05 µM)	relative viability (Axitinib + Dasatinib; first compound 0.1581 µM)	relative viability (Axitinib + Dasatinib; first compound 0.5 µM)	relative viability (Axitinib + AZD7762; first compound 0.005 µM)	relative viability (Axitinib + AZD7762; first compound 0.01581 µM)	relative viability (Axitinib + AZD7762; first compound 0.05 µM)	relative viability (Axitinib + AZD7762; first compound 0.1581 µM)	relative viability (Axitinib + AZD7762; first compound 0.5 µM)
NCI-H1734	0.462	0.432	0.493	0.439	0.436	0.588	0.502	0.529	0.328	0.575	0.515	0.491	0.507	0.499	0.446	0.64	0.573	0.56	0.579	0.668
NCI-H1755	0.482	0.418	0.55	0.4	0.454	0.789	0.747	0.734	0.544	0.73	0.444	0.436	0.479	0.439	0.388	0.509	0.435	0.454	0.524	0.47
NCI-H1792	0.311	0.251	0.213	0.275	0.271	0.469	0.348	0.272		0.255	0.763	0.749	0.618	0.761	0.838	0.72	0.629	0.777	0.755	1.03
NCI-H1793	0.258	0.253	0.326	0.307	0.256	1.01	0.757	0.798	0.365	0.649	0.406	0.405	0.394	0.293	0.301	0.514	0.394	0.565	0.304	0.486
NCI-H1915	0.966	0.994	0.999	0.888	0.88	0.245	0.267	0.249		0.276	0.307	0.289	0.315	0.29	0.252	0.743	0.671	0.71	0.713	0.717
NCI-H1944	0.356	0.336	0.357	0.351	0.357	0.378	0.337	0.344	0.25	0.28	0.213	0.223	0.214	0.202	0.188	0.586	0.441	0.506	0.447	0.541
NCI-H1975	0.334	0.311	0.365	0.317	0.377	0.676	0.437	0.374	0.467	0.354	0.413	0.342	0.393	0.347	0.39	0.743	0.733	0.698	0.715	0.816
NCI-H1993	0.763	0.952	0.805	0.772	0.781	1.06	1.11	0.779	0.697	0.866	0.609	0.708	0.735	0.712	0.52	0.819	0.933	0.746	0.883	0.818
NCI-H2085	0.457	0.467	0.441	0.507	0.373	0.807	0.778	0.796	0.523	0.685	0.237	0.22	0.216	0.247	0.199	1.04	0.908	1.03	0.983	0.952
